# Experimental data published in US20260062443A1 (ALEXION PHARMACEUTICALS, INC., priority 2022, published 2026).
# Molecular target: T1, Human complement C1s enzyme (Homo sapiens, UniProt P09871)
# T1 sequence (P09871 438-688 limits assumed): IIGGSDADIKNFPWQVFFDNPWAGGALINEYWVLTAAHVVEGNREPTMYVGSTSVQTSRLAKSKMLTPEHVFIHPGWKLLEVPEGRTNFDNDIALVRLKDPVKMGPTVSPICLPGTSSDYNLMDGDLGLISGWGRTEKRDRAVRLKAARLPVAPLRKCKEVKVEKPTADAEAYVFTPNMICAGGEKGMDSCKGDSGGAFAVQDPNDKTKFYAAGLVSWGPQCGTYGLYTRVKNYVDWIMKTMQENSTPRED
# T1 sequence (P09871 16-437 partner limits assumed): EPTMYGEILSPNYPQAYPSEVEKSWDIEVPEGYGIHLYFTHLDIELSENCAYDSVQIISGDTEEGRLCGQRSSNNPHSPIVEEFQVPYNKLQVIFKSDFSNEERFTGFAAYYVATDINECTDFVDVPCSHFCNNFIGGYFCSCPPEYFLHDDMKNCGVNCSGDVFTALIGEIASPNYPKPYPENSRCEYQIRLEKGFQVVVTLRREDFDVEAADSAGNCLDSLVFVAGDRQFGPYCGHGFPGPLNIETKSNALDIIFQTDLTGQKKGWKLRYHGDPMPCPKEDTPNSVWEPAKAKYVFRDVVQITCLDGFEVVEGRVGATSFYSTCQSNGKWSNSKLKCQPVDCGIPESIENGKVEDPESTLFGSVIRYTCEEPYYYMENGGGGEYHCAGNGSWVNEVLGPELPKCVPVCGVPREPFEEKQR
# Experiment: Human C1s enzyme assay
# Assay type: biochemical
# Details: human complement C1s enzyme 1.16 nM, substrate Z-L-Lys-SBzl 100 μM, 5 min preincubation; read-out: IC50 (Stars), C1s Inhibiting Activity
# Procedure: Other standard complement assays are also available.
# Human complement C1s enzyme (purified from human serum, Complement Technology, Inc.) at 1.16 nM final concentration was incubated with test compound at various concentrations for 5 min at room temperature in 50 mM Tris, 1 M NaCl, pH 7.5. A synthetic substrate Z-L-Lys-SBzl and DTNB (Ellman's reagent) were added to final concentrations of 100 μM each. Absorbance at 405 nm (A405) was recorded at 30 second intervals for 30 min using a microplate spectrophotometer. IC50 values were calculated by nonlinear regression of complement C1 s reaction rates as a function of test compound concentration.
# ND indicates a compound for which the IC50 value is not determined.
row,IC50 [µM],Compound
1,> 1,"Cn1c(CNC(=O)[C@@H]2CC3(CN2C(=O)CNC(=O)c2ccc4c(c2)Oc2ccccc2S4)OCCO3)cc2cnccc21 [Compound 46, (S)-N-((1-methyl-1H-pyrrolo[3,2-c]pyridin-2-yl)methyl)-7-((phenoxathiine-3-carbonyl)glycyl)-1,4-dioxa-7-azaspiro[4.4]nonane-8-carboxamide]"
2,< 0.1,"C[C@@H](NC(=O)[C@@H]1CC2(CN1C(=O)CNC(=O)c1ccc3c(c1)Oc1ccccc1S3)OCCO2)c1cc2cnccc2[nH]1 [Compound 47, (S)-N-((R)-1-(1H-pyrrolo[3,2-c]pyridin-2-yl)ethyl)-7-((phenoxathiine-3-carbonyl)glycyl)-1,4-dioxa-7-azaspiro[4.4]nonane-8-carboxamide]"
3,> 1,"O=C(NCC(=O)N1CC2(C[C@H]1C(=O)NCc1cc3nccnc3[nH]1)OCCO2)c1ccc2c(c1)Oc1ccccc1S2 [Compound 48, (S)-N-((5H-pyrrolo[2,3-b]pyrazin-6-yl)methyl)-7-((phenoxathiine-3-carbonyl)glycyl)-1,4-dioxa-7-azaspiro[4.4]nonane-8-carboxamide]"
4,> 1,"O=C(NCC(=O)N1CC2(C[C@H]1C(=O)NCc1nc3cnccc3[nH]1)OCCO2)c1ccc2c(c1)Oc1ccccc1S2 [Compound 49, (S)-N-((1H-imidazo[4,5-c]pyridin-2-yl)methyl)-7-((phenoxathiine-3-carbonyl)glycyl)-1,4-dioxa-7-azaspiro[4.4]nonane-8-carboxamide]"
5,0.1 to 1,"O=C(NCC(=O)N1CC2(C[C@H]1C(=O)NCc1cc3cnccc3o1)OCCO2)c1ccc2c(c1)Oc1ccccc1S2 [Compound 50, (S)-N-(furo[3,2-c]pyridin-2-ylmethyl)-7-((phenoxathiine-3-carbonyl)glycyl)-1,4-dioxa-7-azaspiro[4.4]nonane-8-carboxamide]"
6,> 1,"Nc1nccc2ccc(CNC(=O)[C@@H]3CC4(CN3C(=O)CNC(=O)c3ccc5c(c3)Oc3ccccc3S5)OCCO4)cc12 [Compound 51, (S)-N-((1-aminoisoquinolin-7-yl)methyl)-7-((phenoxathiine-3-carbonyl)glycyl)-1,4-dioxa-7-azaspiro[4.4]nonane-8-carboxamide]"
7,> 1,"COc1ccc2[nH]c(CNC(=O)[C@@H]3CC4(CN3C(=O)CNC(=O)c3ccc5c(c3)Oc3ccccc3S5)OCCO4)cc2c1 [Compound 52, (S)-N-((5-methoxy-1H-indol-2-yl)methyl)-7-((phenoxathiine-3-carbonyl)glycyl)-1,4-dioxa-7-azaspiro[4.4]nonane-8-carboxamide]"
8,> 1,"O=C(NCC(=O)N1CC2(C[C@H]1C(=O)NCc1cc3cncc(Cl)c3[nH]1)OCCO2)c1ccc2c(c1)Oc1ccccc1S2 [Compound 53, (S)-N-((7-chloro-1H-pyrrolo[3,2-c]pyridin-2-yl)methyl)-7-((phenoxathiine-3-carbonyl)glycyl)-1,4-dioxa-7-azaspiro[4.4]nonane-8-carboxamide]"
9,< 0.1,"O=C(NCC(=O)N1CC2(C[C@H]1C(=O)NCc1cc3cnccc3s1)OCCO2)c1ccc2c(c1)Oc1ccccc1S2 [Compound 54, (S)-7-((phenoxathiine-3-carbonyl)glycyl)-N-(thieno[3,2-c]pyridin-2-ylmethyl)-1,4-dioxa-7-azaspiro[4.4]nonane-8-carboxamide]"
10,> 1,"O=C(NCC(=O)N1CC2(C[C@H]1C(=O)NCc1cc3cc(Br)ccc3[nH]1)OCCO2)c1ccc2c(c1)Oc1ccccc1S2 [Compound 55, (S)-N-((5-bromo-1H-indol-2-yl)methyl)-7-((phenoxathiine-3-carbonyl)glycyl)-1,4-dioxa-7-azaspiro[4.4]nonane-8-carboxamide]"
11,0.1 to 1,"C[C@@H](NC(=O)[C@@H]1C[C@]2(C)C[C@@H]2N1C(=O)CNC(=O)CCCOc1ccccc1)c1cc2cnccc2[nH]1 [Compound 56, (1S,3S,5S)-N-((R)-1-(1H-pyrrolo[3,2-c]pyridin-2-yl)ethyl)-5-methyl-2-((4-phenoxybutanoyl)glycyl)-2-azabicyclo[3.1.0]hexane-3-carboxamide]"
12,> 1,"C[C@H](NC(=O)[C@@H]1C[C@]2(C)C[C@@H]2N1C(=O)CNC(=O)CCCOc1ccccc1)c1cc2cnccc2[nH]1 [Compound 57, (1S,3S,5S)-N-((S)-1-(1H-pyrrolo[3,2-c]pyridin-2-yl)ethyl)-5-methyl-2-((4-phenoxybutanoyl)glycyl)-2-azabicyclo[3.1.0]hexane-3-carboxamide]"
13,< 0.1,"C[C@@]12C[C@@H]1N(C(=O)CNC(=O)CCCOc1ccccc1)[C@H](C(=O)NCc1cc3cnccc3[nH]1)C2 [Compound 58, (1S,3S,5S)-N-((1H-pyrrolo[3,2-c]pyridin-2-yl)methyl)-5-methyl-2-((4-phenoxybutanoyl)glycyl)-2-azabicyclo[3.1.0]hexane-3-carboxamide]"
14,> 1,"C[C@@]12C[C@@H]1N(C(=O)CNC(=O)CCCOc1ccccc1)[C@H](C(=O)NCCCn1ccnc1)C2 [Compound 59, (1S,3S,5S)-N-(3-(1H-imidazol-1-yl)propyl)-5-methyl-2-((4-phenoxybutanoyl)glycyl)-2-azabicyclo[3.1.0]hexane-3-carboxamide]"
15,> 1,"C[C@@]12C[C@@H]1N(C(=O)CNC(=O)CCCOc1ccccc1)[C@H](C(=O)N[C@@H]1CCN(C(=O)CCN)C1)C2 [Compound 60, (1S,3S,5S)-N-((R)-1-(3-aminopropanoyl)pyrrolidin-3-yl)-5-methyl-2-((4-phenoxybutanoyl)glycyl)-2-azabicyclo[3.1.0]hexane-3-carboxamide]"
16,> 1,"C[C@@]12C[C@@H]1N(C(=O)CNC(=O)CCCOc1ccccc1)[C@H](C(=O)N[C@@H]1CCN(Cc3c[nH]cn3)C1=O)C2 [Compound 61, (1S,3S,5S)-N-((R)-1-((1H-imidazol-4-yl)methyl)-2-oxopyrrolidin-3-yl)-5-methyl-2-((4-phenoxybutanoyl)glycyl)-2-azabicyclo[3.1.0]hexane-3-carboxamide]"
17,> 1,"C[C@@]12C[C@@H]1N(C(=O)CNC(=O)CCCOc1ccccc1)[C@H](C(=O)NC1(c3ccc4c(c3)CNCC4)CC1)C2 [Compound 62, (1S,3S,5S)-5-methyl-2-((4-phenoxybutanoyl)glycyl)-N-(1-(1,2,3,4-tetrahydroisoquinolin-7-yl)cyclopropyl)-2-azabicyclo[3.1.0]hexane-3-carboxamide]"
18,> 1,"C[C@@]12C[C@@H]1N(C(=O)CNC(=O)CCCOc1ccccc1)[C@H](C(=O)NCc1cnc3c(CN)cccn13)C2 [Compound 63, (1S,3S,5S)-N-((8-(aminomethyl)imidazo[1,2-a]pyridin-3-yl)methyl)-5-methyl-2-((4-phenoxybutanoyl)glycyl)-2-azabicyclo[3.1.0]hexane-3-carboxamide]"
19,> 1,"Cc1cc(CN)cc(C2(NC(=O)[C@@H]3C[C@]4(C)C[C@@H]4N3C(=O)CNC(=O)CCCOc3ccccc3)CC2)c1 [Compound 64, (1S,3S,5S)-N-(1-(3-(aminomethyl)-5-methylphenyl)cyclopropyl)-5-methyl-2-((4-phenoxybutanoyl)glycyl)-2-azabicyclo[3.1.0]hexane-3-carboxamide]"
20,> 1,"Cn1c(C2(NC(=O)[C@@H]3C[C@]4(C)C[C@@H]4N3C(=O)CNC(=O)CCCOc3ccccc3)CC2)nc2ccncc21 [Compound 65, (1S,3S,5S)-5-methyl-N-(1-(3-methyl-3H-imidazo[4,5-c]pyridin-2-yl)cyclopropyl)-2-((4-phenoxybutanoyl)glycyl)-2-azabicyclo[3.1.0]hexane-3-carboxamide]"
21,> 1,"C[C@@]12C[C@@H]1N(C(=O)CNC(=O)CCCOc1ccccc1)[C@H](C(=O)OCc1cc3c(cn1)CNC3)C2 [Compound 66, (2,3-dihydro-1H-pyrrolo[3,4-c]pyridin-6-yl)methyl (1S,3S,5S)-5-methyl-2-((4-phenoxybutanoyl)glycyl)-2-azabicyclo[3.1.0]hexane-3-carboxylate]"
22,0.1 to 1,"C[C@@]12C[C@@H]1N(C(=O)CNC(=O)CCCOc1ccccc1)[C@H](C(=O)NCc1ccc3c(c1)CNC3)C2 [Compound 67, (1S,3S,5S)-N-(isoindolin-5-ylmethyl)-5-methyl-2-((4-phenoxybutanoyl)glycyl)-2-azabicyclo[3.1.0]hexane-3-carboxamide]"
23,0.1 to 1,"C[C@@H](NC(=O)[C@@H]1CC2(CN1C(=O)CNC(=O)c1ccc(-c3ccc(F)cc3F)cc1)OCCO2)c1cc2cnccc2[nH]1 [Compound 68, (S)-N-((R)-1-(1H-pyrrolo[3,2-c]pyridin-2-yl)ethyl)-7-((2′,4′-difluoro-[1,1′-biphenyl]-4-carbonyl)glycyl)-1,4-dioxa-7-azaspiro[4.4]nonane-8-carboxamide]"
